Like-named read-outs stand apart in the source and are kept apart here.
Molecular target: T1, MRGPRX4 (Homo sapiens, UniProt Q96LA9)
T1 construct: expressed in transfected cells; host or cells: HEK293T
Experiment: IP1 accumulation HTRF assay, MRGPRX4
Assay type: cell-based
Design: key to IP1 Basal / IP1 accumulation with YM (Figure 1c) / response to agonist, MRGPRX4 / IP1 accumulation: % IP1: unstimulated mock-transfected = 0%, fully stimulated MRGPRX4 = 100%
Conditions: for Emax: HEK-293T

T1 sequence (Q96LA9 whole entry): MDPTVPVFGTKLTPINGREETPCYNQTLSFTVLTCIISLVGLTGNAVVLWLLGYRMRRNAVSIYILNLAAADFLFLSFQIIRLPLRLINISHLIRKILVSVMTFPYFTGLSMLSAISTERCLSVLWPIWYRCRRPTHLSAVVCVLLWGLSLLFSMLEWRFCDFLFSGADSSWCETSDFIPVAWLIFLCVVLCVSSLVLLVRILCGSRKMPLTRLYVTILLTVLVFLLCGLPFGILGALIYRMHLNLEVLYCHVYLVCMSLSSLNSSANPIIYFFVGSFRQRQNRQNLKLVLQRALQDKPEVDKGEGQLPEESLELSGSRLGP

C[C@H](CCC(=O)NCCS(=O)(=O)O)[C@H]1CC[C@H]2[C@@H]3CC[C@@H]4C[C@H](O)CC[C@]4(C)[C@H]3C[C@H](O)[C@]12C [TDCA, Taurodeoxycholic acid]
activation at 100 µM (2 h, log [agonist] (M) -4, MRGX4-transfected, individual replicates, read-out: IP1 accumulation, dose-response (Figure 1a)): 48.8%
activation at 33.333 µM (2 h, log [agonist] (M) -4.47712, MRGX4-transfected, individual replicates, read-out: IP1 accumulation, dose-response (Figure 1a)): 32.5%
activation at 11.111 µM (2 h, log [agonist] (M) -4.95424, MRGX4-transfected, individual replicates, read-out: IP1 accumulation, dose-response (Figure 1a)): 22.8%
activation at 3.7037 µM (2 h, log [agonist] (M) -5.43136, MRGX4-transfected, individual replicates, read-out: IP1 accumulation, dose-response (Figure 1a)): 12.8%
activation at 1.2346 µM (2 h, log [agonist] (M) -5.90849, MRGX4-transfected, individual replicates, read-out: IP1 accumulation, dose-response (Figure 1a)): 12.2%
activation at 0.4115 µM (2 h, log [agonist] (M) -6.38561, MRGX4-transfected, individual replicates, read-out: IP1 accumulation, dose-response (Figure 1a)): 12.6%
activation at 0.13717 µM (2 h, log [agonist] (M) -6.86273, MRGX4-transfected, individual replicates, read-out: IP1 accumulation, dose-response (Figure 1a)): 10.1%
response to agonist, MRGPRX4 (Figure 4c-f, agonist 100µM, MRGPRX4 alone (reference = 100)): 100
Emax (MRGPRX4 (Fig. 1A), HEK293T, normalized to 100 μM nateglinide, read-out: IP1 Emax): 84.2%
Emax (MRGPRX4 (Fig. 1A), HEK293T, normalized to 100 μM nateglinide, read-out: IP1 span): 69.6%
IP1 Basal (MRGPRX4 (Fig. 1A), HEK293T, normalized to 100 μM nateglinide): 14.54
EC50 (MRGPRX4 (Fig. 1A), HEK293T, normalized to 100 μM nateglinide, read-out: IP1 EC50): 53.2 µM

From paper PMC10165273, “Itch receptor MRGPRX4 interacts with the receptor activity–modifying proteins” (The Journal of Biological Chemistry, 2023)
